According to publication doi:10.1101/2023.03.24.534094v2 (biorxiv, 2023):
Where two headings read alike, the source gives them in different places.

Assays:
[1] = target: SLK (Homo sapiens, UniProt Q9H2G2); assay: biochemical; conditions: read-out: dTm 12
[2] = target: CK1e (Homo sapiens, UniProt P49674); assay: biochemical; conditions: read-out: dTm 12
[3] = target: T1, Erk3 (Homo sapiens, UniProt Q16659); assay: biochemical; conditions: read-out: dTm 12
[4] = target: T2, MSSK1 (Homo sapiens, UniProt Q9UPE1); assay: biochemical; conditions: read-out: dTm 12
T2 sequence (Q9UPE1 whole entry, the tested form may be a part): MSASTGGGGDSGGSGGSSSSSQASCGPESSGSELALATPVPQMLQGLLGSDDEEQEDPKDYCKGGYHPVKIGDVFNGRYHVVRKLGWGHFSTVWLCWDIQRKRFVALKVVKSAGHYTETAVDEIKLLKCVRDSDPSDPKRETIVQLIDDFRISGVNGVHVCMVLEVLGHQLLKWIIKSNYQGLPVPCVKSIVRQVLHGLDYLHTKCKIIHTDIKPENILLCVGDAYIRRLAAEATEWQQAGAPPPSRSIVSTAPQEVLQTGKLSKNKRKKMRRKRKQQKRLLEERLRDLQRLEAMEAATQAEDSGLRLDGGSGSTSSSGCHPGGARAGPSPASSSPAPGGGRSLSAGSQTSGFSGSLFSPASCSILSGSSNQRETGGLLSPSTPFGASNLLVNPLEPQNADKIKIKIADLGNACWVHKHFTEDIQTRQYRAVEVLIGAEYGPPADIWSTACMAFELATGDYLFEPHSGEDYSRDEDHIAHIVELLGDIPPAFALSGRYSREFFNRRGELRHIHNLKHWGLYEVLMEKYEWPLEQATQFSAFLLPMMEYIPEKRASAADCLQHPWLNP

[5] = target: EpHA2 (kinase domain) (Homo sapiens, UniProt P29317); assay: X-ray crystal structure; type: binding; conditions: co-crystal, 293 K
Sequence of EpHA2 (kinase domain) (P29317 596-900): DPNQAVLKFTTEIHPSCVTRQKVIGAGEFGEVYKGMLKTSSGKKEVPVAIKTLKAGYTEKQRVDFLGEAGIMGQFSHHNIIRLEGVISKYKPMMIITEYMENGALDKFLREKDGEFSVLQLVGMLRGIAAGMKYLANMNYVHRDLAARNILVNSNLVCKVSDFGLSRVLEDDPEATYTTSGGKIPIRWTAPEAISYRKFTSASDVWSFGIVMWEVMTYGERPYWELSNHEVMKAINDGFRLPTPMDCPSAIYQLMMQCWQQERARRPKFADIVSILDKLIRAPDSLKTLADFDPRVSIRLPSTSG

[6] = target: T1, Erk3; assay: biochemical
[7] = target: T2, MSSK1; assay: biochemical
[8] = target: MST4 (Homo sapiens, UniProt Q9P289); assay: biochemical
Sequence of MST4 (Q9P289 whole entry): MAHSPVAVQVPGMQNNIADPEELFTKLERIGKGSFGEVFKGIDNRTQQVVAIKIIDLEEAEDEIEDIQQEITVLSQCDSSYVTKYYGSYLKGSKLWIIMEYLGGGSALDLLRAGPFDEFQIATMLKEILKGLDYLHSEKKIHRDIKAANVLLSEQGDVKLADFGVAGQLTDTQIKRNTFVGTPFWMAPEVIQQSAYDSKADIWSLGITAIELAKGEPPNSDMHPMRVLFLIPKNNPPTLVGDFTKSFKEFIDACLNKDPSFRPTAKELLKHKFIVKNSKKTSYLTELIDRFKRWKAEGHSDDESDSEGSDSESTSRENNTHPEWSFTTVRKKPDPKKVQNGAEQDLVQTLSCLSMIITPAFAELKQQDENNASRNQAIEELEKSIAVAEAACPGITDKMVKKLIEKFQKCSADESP

[9] = target: EpHB2 (Homo sapiens, UniProt P29323); assay: NanoBRET target engagement; type: cell-based
[10] = target: EpHA4 (Homo sapiens, UniProt P54764); assay: NanoBRET target engagement; type: cell-based
Sequence of EpHA4 (P54764 20-986): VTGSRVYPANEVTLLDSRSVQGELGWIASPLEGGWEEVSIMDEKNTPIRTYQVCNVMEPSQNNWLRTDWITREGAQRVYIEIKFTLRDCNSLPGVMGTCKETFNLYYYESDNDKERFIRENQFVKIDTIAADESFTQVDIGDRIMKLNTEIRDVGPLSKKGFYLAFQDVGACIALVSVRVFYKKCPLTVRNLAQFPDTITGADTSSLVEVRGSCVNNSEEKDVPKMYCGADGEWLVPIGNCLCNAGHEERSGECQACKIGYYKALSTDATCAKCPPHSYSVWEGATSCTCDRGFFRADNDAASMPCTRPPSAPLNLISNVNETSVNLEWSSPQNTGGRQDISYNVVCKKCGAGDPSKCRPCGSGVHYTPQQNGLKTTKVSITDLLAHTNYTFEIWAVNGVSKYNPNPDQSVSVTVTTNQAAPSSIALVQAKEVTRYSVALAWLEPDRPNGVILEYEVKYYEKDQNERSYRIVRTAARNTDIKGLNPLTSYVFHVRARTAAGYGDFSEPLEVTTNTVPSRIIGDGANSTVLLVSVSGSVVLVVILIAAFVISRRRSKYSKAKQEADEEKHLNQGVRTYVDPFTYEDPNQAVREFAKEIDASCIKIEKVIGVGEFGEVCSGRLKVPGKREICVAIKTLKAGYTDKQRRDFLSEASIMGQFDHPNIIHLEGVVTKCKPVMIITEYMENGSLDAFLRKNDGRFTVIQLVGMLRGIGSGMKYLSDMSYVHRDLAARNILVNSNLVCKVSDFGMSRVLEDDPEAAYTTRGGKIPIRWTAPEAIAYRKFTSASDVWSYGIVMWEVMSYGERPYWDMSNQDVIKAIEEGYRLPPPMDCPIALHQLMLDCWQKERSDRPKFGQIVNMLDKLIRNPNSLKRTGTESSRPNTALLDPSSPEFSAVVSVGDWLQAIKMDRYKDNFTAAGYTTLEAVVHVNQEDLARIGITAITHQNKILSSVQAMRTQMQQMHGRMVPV

[11] = target: T3, BMX (Homo sapiens, UniProt P51813); assay: NanoBRET target engagement; type: cell-based
T3 sequence (P51813 1-675): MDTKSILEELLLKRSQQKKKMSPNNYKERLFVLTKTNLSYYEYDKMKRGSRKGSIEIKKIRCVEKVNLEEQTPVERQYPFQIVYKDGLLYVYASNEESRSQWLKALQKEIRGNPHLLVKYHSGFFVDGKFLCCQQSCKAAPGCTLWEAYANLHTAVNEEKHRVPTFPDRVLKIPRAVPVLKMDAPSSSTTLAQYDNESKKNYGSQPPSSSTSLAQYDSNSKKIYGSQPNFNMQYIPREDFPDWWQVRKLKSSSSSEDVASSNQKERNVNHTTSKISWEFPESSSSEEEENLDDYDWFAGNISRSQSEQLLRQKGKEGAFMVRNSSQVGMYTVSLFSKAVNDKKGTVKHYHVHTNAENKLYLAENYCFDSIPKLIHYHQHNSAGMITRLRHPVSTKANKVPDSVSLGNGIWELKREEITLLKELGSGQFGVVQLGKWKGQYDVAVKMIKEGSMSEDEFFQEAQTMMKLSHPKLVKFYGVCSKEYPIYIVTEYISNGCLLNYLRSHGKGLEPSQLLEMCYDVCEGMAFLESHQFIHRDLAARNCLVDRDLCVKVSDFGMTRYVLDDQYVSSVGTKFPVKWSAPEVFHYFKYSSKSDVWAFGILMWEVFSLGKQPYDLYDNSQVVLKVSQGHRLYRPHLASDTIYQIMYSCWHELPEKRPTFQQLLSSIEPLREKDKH

[12] = target: EpHA3 (Homo sapiens, UniProt P29320); assay: NanoBRET target engagement; type: cell-based
[13] = target: EpHA5 (Homo sapiens, UniProt P54756); assay: NanoBRET target engagement; type: cell-based
[14] = target: EpHA2 (Homo sapiens, UniProt P29317); assay: NanoBRET target engagement; type: cell-based
Sequence of EpHA2 (P29317 24-976): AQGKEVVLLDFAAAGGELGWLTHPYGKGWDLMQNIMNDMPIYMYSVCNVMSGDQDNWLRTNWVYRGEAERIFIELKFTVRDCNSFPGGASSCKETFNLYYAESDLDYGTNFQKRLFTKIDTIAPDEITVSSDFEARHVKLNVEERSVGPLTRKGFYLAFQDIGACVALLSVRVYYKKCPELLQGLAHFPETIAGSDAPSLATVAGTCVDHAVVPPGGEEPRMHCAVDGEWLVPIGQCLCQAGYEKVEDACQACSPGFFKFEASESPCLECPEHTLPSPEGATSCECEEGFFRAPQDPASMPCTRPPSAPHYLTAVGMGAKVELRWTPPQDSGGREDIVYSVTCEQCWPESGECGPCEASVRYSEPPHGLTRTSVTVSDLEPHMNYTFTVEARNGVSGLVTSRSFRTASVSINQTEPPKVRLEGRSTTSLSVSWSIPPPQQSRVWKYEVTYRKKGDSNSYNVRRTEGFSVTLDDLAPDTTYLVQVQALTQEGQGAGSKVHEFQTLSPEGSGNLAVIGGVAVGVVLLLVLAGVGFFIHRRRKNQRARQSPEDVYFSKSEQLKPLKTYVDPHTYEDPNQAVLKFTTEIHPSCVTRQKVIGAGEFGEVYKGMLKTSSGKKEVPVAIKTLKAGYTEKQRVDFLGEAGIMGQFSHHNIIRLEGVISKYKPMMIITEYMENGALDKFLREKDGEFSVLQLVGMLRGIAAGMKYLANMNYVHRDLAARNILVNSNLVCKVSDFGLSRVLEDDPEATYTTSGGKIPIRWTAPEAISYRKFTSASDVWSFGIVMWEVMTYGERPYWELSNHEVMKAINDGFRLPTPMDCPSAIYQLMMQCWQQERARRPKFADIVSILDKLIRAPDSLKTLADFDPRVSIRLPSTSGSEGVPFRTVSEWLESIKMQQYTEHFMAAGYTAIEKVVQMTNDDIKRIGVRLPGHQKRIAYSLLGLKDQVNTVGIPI

[15] = target: ABL1 (Homo sapiens, UniProt P00519); assay: NanoBRET target engagement; type: cell-based
Sequence of ABL1 (P00519 whole entry): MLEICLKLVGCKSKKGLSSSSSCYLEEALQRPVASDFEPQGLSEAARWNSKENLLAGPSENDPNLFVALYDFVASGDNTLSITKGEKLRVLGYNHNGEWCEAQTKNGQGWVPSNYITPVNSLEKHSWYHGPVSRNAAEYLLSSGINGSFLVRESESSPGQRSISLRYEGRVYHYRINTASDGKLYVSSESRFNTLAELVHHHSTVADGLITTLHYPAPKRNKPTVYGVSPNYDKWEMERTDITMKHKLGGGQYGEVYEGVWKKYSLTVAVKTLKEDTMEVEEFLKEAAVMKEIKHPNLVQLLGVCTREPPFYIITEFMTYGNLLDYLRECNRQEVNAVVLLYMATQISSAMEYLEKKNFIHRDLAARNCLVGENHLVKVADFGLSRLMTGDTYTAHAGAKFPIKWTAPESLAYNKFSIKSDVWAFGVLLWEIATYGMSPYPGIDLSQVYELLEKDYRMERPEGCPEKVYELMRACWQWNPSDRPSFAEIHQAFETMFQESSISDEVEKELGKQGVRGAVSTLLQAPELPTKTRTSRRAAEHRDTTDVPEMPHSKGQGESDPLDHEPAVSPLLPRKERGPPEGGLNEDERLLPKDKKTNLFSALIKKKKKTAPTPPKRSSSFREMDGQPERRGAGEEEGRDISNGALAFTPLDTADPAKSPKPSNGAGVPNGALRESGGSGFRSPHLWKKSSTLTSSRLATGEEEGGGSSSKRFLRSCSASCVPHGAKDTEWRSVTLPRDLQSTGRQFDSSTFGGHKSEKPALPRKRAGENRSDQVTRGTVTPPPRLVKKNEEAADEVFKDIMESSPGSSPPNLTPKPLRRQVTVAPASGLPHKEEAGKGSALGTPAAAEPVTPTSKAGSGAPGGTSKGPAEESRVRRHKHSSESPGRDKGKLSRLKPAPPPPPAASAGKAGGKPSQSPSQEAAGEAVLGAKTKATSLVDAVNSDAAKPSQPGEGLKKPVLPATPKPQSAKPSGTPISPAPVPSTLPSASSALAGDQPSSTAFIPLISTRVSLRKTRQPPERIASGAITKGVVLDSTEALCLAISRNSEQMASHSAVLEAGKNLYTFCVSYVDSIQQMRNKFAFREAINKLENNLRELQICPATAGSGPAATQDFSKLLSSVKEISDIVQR

[16] = target: T4, MST2 (Homo sapiens, UniProt Q13188); assay: biochemical
T4 sequence (Q13188 1-491): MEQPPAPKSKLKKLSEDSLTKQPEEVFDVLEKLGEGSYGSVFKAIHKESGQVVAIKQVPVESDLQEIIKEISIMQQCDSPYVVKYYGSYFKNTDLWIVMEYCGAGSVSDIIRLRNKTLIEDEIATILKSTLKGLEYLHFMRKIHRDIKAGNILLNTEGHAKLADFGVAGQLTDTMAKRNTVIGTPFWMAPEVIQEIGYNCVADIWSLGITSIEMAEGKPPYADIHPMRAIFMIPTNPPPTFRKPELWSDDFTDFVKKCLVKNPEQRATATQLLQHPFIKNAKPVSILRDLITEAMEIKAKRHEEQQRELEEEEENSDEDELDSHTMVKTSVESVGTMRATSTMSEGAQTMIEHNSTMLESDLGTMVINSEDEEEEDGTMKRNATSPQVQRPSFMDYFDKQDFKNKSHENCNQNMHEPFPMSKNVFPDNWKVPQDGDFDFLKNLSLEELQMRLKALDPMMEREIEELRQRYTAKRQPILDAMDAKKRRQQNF

[17] = target: GAK (Homo sapiens, UniProt O14976); assay: NanoBRET target engagement; type: cell-based

T1 sequence (Q16659 whole entry): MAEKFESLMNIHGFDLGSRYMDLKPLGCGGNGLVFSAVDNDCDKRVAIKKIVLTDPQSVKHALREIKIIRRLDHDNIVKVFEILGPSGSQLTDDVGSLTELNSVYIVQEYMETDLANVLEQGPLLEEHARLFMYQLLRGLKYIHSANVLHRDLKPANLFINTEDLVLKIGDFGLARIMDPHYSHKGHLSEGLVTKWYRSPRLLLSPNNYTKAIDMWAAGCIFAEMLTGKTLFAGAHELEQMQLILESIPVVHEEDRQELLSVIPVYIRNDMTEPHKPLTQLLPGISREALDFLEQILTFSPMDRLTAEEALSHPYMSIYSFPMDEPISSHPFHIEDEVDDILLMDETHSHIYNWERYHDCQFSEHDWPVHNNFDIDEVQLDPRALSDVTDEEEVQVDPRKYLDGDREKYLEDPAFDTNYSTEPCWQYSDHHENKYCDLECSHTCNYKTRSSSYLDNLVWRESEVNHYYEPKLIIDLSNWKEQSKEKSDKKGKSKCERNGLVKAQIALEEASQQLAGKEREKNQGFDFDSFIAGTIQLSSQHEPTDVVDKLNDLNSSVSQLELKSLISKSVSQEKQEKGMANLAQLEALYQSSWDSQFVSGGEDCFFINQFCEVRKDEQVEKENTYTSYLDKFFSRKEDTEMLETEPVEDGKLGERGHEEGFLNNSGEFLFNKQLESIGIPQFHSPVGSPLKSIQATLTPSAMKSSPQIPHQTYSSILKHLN

Structure (SMILES): CNc1ncc2cc(-c3cc(F)c(-c4cccc(C)n4)cc3F)c(=O)n(CCCCN)c2n1 [compound 12, 8-(4-Aminobutyl)-6-(2,5-difluoro-4-(6-methylpyridin-2-yl)phenyl)-2-(methylamino)pyrido[2,3-d]pyrimidin-7(8H)-one]
- ΔTm at 10 µM [1]: 2.9 °C
- ΔTm at 10 µM [2]: 3.1 °C
- ΔTm at 10 µM [3]: 0.7 °C
- ΔTm at 10 µM [4]: -0.2 °C

Structure (SMILES): CNc1ncc2cc(-c3cc(C(F)(F)F)ccc3Cl)c(=O)n(CCCCN)c2n1 [compound 9, 8-(4-Aminobutyl)-6-(2-chloro-5-(trifluoromethyl)phenyl)-2-(methylamino)pyrido[2,3-d]pyrimidin-7(8H)-one]
- X-ray crystal structure [5]: 8BIO (EpHA2-9 complex)

Structure (SMILES): CNc1ncc2cc(-c3cc(F)ccc3F)c(=O)n(CCCCN)c2n1 [compound 5, 8-(4-Aminobutyl)-6-(2,5-difluorophenyl)-2-(methylamino)pyrido[2,3-d]pyrimidin-7(8H)-one]
- ΔTm at 10 µM ([6]; read-out: dTm MR22 (5)): 0.5 °C
- ΔTm at 10 µM ([7]; read-out: dTm MR22 (5)): -0.1 °C
- ΔTm at 10 µM ([8]; read-out: ∆Tm MR22 (5)): 1.4 °C

Structure (SMILES): CNc1ncc2cc(-c3cc(Cl)ccc3Cl)c(=O)n(CCCCN)c2n1 [compound 8, 8-(4-Aminobutyl)-6-(2,5-dichlorophenyl)-2-(methylamino)pyrido[2,3-d]pyrimidin-7(8H)-one]
- IC50 [9]: > 1000 nM
- IC50 [10]: 346 ± 1 nM
- IC50 [11]: > 1000 nM
- IC50 [12]: > 1000 nM
- IC50 [13]: > 1000 nM
- IC50 [14]: > 1000 nM
- IC50 [15]: > 1000 nM

Structure (SMILES): CNc1ncc2cc(-c3ccc(-c4cccc(C)n4)cc3Cl)c(=O)n(CC3OCC(N)CO3)c2n1 (stereo not drawn) [compound 2, G-5555]
- dTm G-5555 (2) ([6]; 10 µM, binder): 0.3 °C
- ∆Tm G-5555 (2) ([8]; 10 µM, binder): 6.1 degC
- ∆Tm G-5555 (2) ([16]; 10 µM, binder): 6.9 degC

Structure (SMILES): CNc1ncc2cc(-c3ccccc3Cl)c(=O)n(CCCCN)c2n1 [compound 4, 8-(4-Aminobutyl)-6-(2-chlorophenyl)-2-(methylamino)pyrido[2,3-d]pyrimidin-7(8H)-one]
- IC50 [9]: > 1000 nM
- IC50 [17]: > 1000 nM
- IC50 [10]: 66 ± 38 nM
- IC50 [12]: 313 ± 121 nM
- ΔTm at 10 µM ([7]; read-out: dTm MR21 (4)): 0.2 °C
- ΔTm at 10 µM ([16]; read-out: ∆Tm MR21 (4)): 1 °C
- IC50 [13]: 928 ± 6 nM
- IC50 [14]: 210 ± 36 nM
- IC50 [15]: > 1000 nM
